Results reported in patent US5441563A, “Highly insoluble azole embossing inhibitor and the use thereof” (Armstrong World Industries, Inc., priority 1994, dated 1995).

Experiments:
[1] = Inhibitor activity (IA), depth of chemical embossing and degree of expansion ranked against BTA-P (Table II); set-up: key to Inhibitor Activity (IA): 1: Excellent; 2: Very Good; 3: Good; 4: Fair; 5: Poor; None; details: 10% by weight inhibitor in ink; scale 1 to 5, BTA-P benchmark = 1; 7 mil plastisol, 185 °C, 1.9 min
Experimental: Table II sets forth a number of properties of the examples and comparative examples which were made and tested. Most of these compounds were prepared using the direct milling procedure and then evaluated for inhibitor activity, ghosting and embossing definition.
The inhibited inks (at 10% by weight inhibitor concentration) were printed on 7 mils of an expandable plastisol coated onto a glass mat which was saturated with a non-expandable plastisol. This was done on a flat-bed gravure proof press using a 100 line screen step-wedge gravure plate. The steps ranged from a deep shadow tone to a shallow highlight tone. The inks printed and dried without any tack.
The printed samples were coated with 10 mils of a clear plastisol wearlayer and heated for 1.9±0.1 minutes at an air temperature of 185°±2° C. in a Werner. Mathis oven to fuse and expand the foamable plastisol to about 14 mils (a 2:1 blow ratio). The thickness of the printed coated areas (i.e., restricted area) was measured in mils and compared to the thickness of the expanded unprinted surrounding areas. This difference was recorded as depth of chemical embossing and was used along with the degree of expansion in the inhibited area to access the inhibitor activity (IA).
The inhibitor activity of the BTA-P derivative was established as the benchmark and on a scale of 1 to 5 was given a rating of 1 (five on the scale being less than one mil of overall chemical embossing). This is a subjective ranking where the other compounds were evaluated for inhibitor activity by comparing them to BTA-P, both numerically and visually.

[2] = physchem; format: physicochemical
[3] = Stability of dispersions and ink compositions containing the inhibitor; format: physicochemical
Experimental: A cationic dispersion of TTA-P was prepared using a quaternary ammonium salt, stearyl dimethylbenzylammonium chloride, (Maquat SC-18, Mason Chemical Co.), as the stabilizer. The product was first diminutized by grinding the coarse powder (TTA-P) for approximately 18 hours in a standard ball mill using a combination of 12 mm diameter spherical and 6 mm diameter×6 mm high cylindrical balls. Approximately 1/2 of the 1 L ball mill volume was filled for the grinding operation. […] The dispersion was then prepared by adding 2.35 parts Maquat SC-18 (85% active) to 37.65 parts deionized water and stirring until dissolved. A total of 40 parts of TTA-P was then added to the surfactant solution in 5 part increments with stirring, followed by agitation with a sonic dismembrator, (Fisher Model 3000). The sonic probe was inserted directly into the suspension and run on the highest setting for 1-2 minutes. A creamy dispersion resulted initially, with viscosity increasing with increasing solids content. The final suspension was a uniform paste with a concentration of 50% by weight solids.
A blue aqueous inhibitor ink was prepared by adding 0.20 parts of CIB 103 Blue Pigment (sold by Penn Color, Inc.) to 20 parts of CIE 94 Extender (sold by Penn Color, Inc.) and stirring to uniform coloration. Then 6.06 parts of the 50% suspension of TTA-P (prepared in Example 4) was then added to the ink mixture and stirred to uniform coloration.
An anionic dispersion paste of TTA-P was prepared with a polyoxyethylene branched nonylphenyl ether phosphate surfactant, (Rhodofac PE-50, Rhone Poulenc). Diminutization of the compound was performed by milling as described in Example 4. Dispersion of the compound was accomplished using the sonic dismembrator, also described in Example 4. Materials were combined in the proportion: 40 parts of deionized water, 2.06 parts of the surfactant and 40 parts of TTA-P. Materials were added in the listed sequence.
The anionic dispersion of TTA-P (Example 6) was added to an anionic ink formulation of Sicpa Corp. The resultant mixture consisted of 20 parts Sicpa Extender 694556, 0.20 parts Sicpa black ink 674554 and 6.06 parts of the 48.7% dispersion of the compound (Example 6).
A portion of BTA-P, the benzotriazole-piperazine derivative, was stably dispersed with the cationic surfactant stearyldimethylbenzylammonium chloride, (Maquat SC-18, Mason Chemical Co.). The compound was milled and dispersed as in Example 4. The materials were combined in the proportion: 20 parts deionized water, 1.18 parts Maquat SC-18, (85% active), and 33.16 parts BTA-P. The materials were added in the listed sequence. […] The paste was 61% by weight of BTA-P.
The cationic dispersion of BTA-P (Example 8) was added to a cationic ink formulation of Penn Color. The mixture consisted of 20 parts Penn Color Extender CIE 94, 0.20 parts Penn Color CIB 103 blue ink and 4.96 parts of the 61% dispersion of BTA-P (Example 8).
A portion of HTTA-P, the hydrogenated tolyltriazolepiperazine derivative, was colloidally dispersed with the cationic surfactant stearyldimethylbenzylammonium chloride, (Maquat SC-18, Mason Chemical Co.). The milling and dispersing procedures of Example 4 were followed. The materials were combined in the proportion: 21 parts deionized water, 1 part Maquat SC-18, (85% active), and 37 parts HTTA-P. The materials were added in the listed sequence. […] The paste was 62.7% by weight of HTTA-P.
The cationic dispersion of HTTA-P (Example 10) was added to a cationic ink formulation of Penn Color. The mixture consisted of 20 parts Extender CIE 94, 0.20 parts CIB 103 blue ink and 4.83 parts of the 62.7% dispersion of HTTA-P (Example 10).
Hitherto, dispersion of these new inhibitors directly into the ink formulation was not considered. The instability problems of other triazole inhibitors seemed to indicate that a surfactant in addition to that found in the ink and extender was required. […]

[4] = as above; format: physicochemical; details: sonicated

Solubility in iPrOH ([2]; 1440 min): 0.204 % BY WT | Solubility in H2O ([2]; water, 24 h): 0.031 % BY WT | Stability of ink mixture ([3]; anionic aqueous ink with anionic dispersion): colloidally stable | Stability of dispersion ([3]; anionic dispersion paste, Rhodofac PE-50): stable, homogenous paste | Stability of ink mixture ([3]; cationic aqueous ink with cationic dispersion): colloidally stable and disperse | Stability of ink mixture ([4]; direct addition to anionic ink): homogenous and stable mixture | Stability of ink mixture ([4]; direct addition to cationic ink): homogenous and stable mixture
Substance: N,N'-bis(tolyltriazol-1-yl methyl) piperazine [TTA-P]
Inhibitor Activity (IA) [1]: 1
